Measurements reported in ChEMBL document CHEMBL1139539, “Structure-based characterization and optimization of novel hydrophobic binding interactions in a series of pyrrolidine influenza neuraminidase inhibitors” (J Med Chem, 2005).

The compounds below were run against Neuraminidase (Influenza B virus (strain B/Lee/1940), UniProt P03474) (assay: Effective concentration against neuraminidase of Influenza B virus B/Memphis strain).
Chain of Neuraminidase (P03474 whole entry): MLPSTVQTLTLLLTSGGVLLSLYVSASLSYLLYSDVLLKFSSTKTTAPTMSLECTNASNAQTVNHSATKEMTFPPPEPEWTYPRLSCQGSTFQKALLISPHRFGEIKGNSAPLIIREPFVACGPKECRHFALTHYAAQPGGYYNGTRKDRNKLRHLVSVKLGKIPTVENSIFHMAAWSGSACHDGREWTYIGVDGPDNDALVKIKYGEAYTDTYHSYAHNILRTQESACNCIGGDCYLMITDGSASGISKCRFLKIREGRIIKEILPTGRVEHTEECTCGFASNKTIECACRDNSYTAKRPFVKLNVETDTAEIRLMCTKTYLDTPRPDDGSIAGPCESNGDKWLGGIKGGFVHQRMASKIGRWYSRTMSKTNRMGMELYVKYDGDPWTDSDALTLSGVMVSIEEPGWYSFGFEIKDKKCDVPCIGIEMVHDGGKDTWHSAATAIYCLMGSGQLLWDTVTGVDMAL

Compound	EC50
CC(=O)N[C@@H](CC(C)C)[C@@H]1N[C@@H](C(=O)O)C[C@H]1c1c[nH]cn1	11 µM
C=C[C@@H]1C[C@H](C(=O)O)N[C@H]1[C@H](CC(C)C)NC(C)=O	23 µM
CC(=O)N[C@@H](CC(C)C)[C@@H]1N[C@@H](C(=O)O)C[C@H]1c1nccs1	6 µM
CC(=O)N[C@@H](CC(C)C)[C@@H]1N[C@@H](C(=O)O)C[C@H]1C=C(F)F	9 µM
